Experimental data reported in article PMC11995724, “Antibiotic target discovery by integrated phenotypic and activity-based profiling of electrophilic fragments” (Cell chemical biology, 2025).
Structures can show the parent of a compound that is named as a salt.

Test: in vitro
Conditions: human, hek293t cells

`CC(C)C(NC(=O)CCl)c1ccc2c(c1)OCCCO2` (stereo not shown) [4-N14, 2-chloro-N-[1-(3,4-dihydro-2H-1,5-benzodioxepin-7-yl)-2-methylpropyl]acetamide] gave a viability at 48 h, 25 µM of 28.5%.
`CC(Cl)C(=O)Nc1cc(C(F)(F)F)ccc1Cl` (stereo not shown) [4-N15, 2-chloro-N-[2-chloro-5-(trifluoromethyl)phenyl]propanamide] showed a viability at 48 h, 25 µM of 83.3%.
`O=C(CCl)Nc1ccc(S(=O)(=O)C(F)F)cc1` [4-N16, 2-chloro-N-(4-difluoromethanesulfonylphenyl)acetamide] gave a viability at 48 h, 25 µM of 0.598%.
In the case of `Cc1ccc(C(=O)c2ccccc2NC(=O)CCl)cc1` [4-N17, 2-chloro-N-[2-(4-methylbenzoyl)phenyl]acetamide], the viability at 48 h, 25 µM is reported as 2.4%.
With `Cc1c(C#N)c(NC(=O)CCl)n(C2CCCCC2)c1C` [4-N18, 2-chloro-N-(3-cyano-1-cyclohexyl-4,5-dimethyl-1H-pyrrol-2-yl)acetamide] the viability at 48 h, 25 µM was 0.0875%.
In the case of `COc1ccc(C2=NN(C(=O)CCl)C(c3ccco3)C2)cc1` (stereo not shown) [4-N19, 2-chloro-1-[5-(furan-2-yl)-3-(4-methoxyphenyl)-4,5-dihydro-1H-pyrazol-1-yl]ethan-1-one], the viability at 48 h, 25 µM is reported as 0.0172%.
`CC(Cl)C(=O)N1CC(=O)Nc2cc(C(F)(F)F)ccc21` (stereo not shown) [4-N20, 4-(2-chloropropanoyl)-7-(trifluoromethyl)-1,2,3,4-tetrahydroquinoxalin-2-one] gave a viability at 48 h, 25 µM of 82.1%.
In the case of `O=C(CCl)NC1CCCN(c2cc(N3CCOCC3)ncn2)C1` (stereo not shown) [4-N21, 2-chloro-N-{1-[6-(morpholin-4-yl)pyrimidin-4-yl]piperidin-3-yl}acetamide], the viability at 48 h, 25 µM is reported as 4.92%.
Compound `O=C(CCl)Nc1ccccc1Cc1ccccc1` [4-N22, N-(2-benzylphenyl)-2-chloroacetamide] has a viability at 48 h, 25 µM of 0.906%.
In the case of `Cc1ccc(F)cc1NC(=O)CCl` [4-O03, 2-chloro-N-(5-fluoro-2-methylphenyl)acetamide], the viability at 48 h, 25 µM is reported as 0.509%.
Compound `COc1ccc(S(=O)(=O)N2CCOCC2)cc1NC(=O)CCl` [4-O04, 2-chloro-N-[2-methoxy-5-(morpholine-4-sulfonyl)phenyl]acetamide] has a viability at 48 h, 25 µM of 1.63%.
Work on `O=C(CCl)Nc1cc2c(cc1[N+](=O)[O-])OCCCO2` [4-O05, 2-chloro-N-(8-nitro-3,4-dihydro-2H-1,5-benzodioxepin-7-yl)acetamide] yielded a viability at 48 h, 25 µM of 103%.
In the case of `CC(Cl)C(=O)NC1CCCCC1` (stereo not shown) [4-O06, 2-chloro-N-cyclohexylpropanamide], the viability at 48 h, 25 µM is reported as 115%.
Compound `COc1cc([N+](=O)[O-])ccc1NC(=O)CCl` [4-O07, 2-chloro-N-(2-methoxy-4-nitrophenyl)acetamide] has a viability at 48 h, 25 µM of 1.19%.
`CC(Cl)C(=O)Nc1ccc(F)c(F)c1F` (stereo not shown) [4-O08, 2-chloro-N-(2,3,4-trifluorophenyl)propanamide] showed a viability at 48 h, 25 µM of 88.8%.
In the case of `N#Cc1cc([N+](=O)[O-])ccc1NC(=O)CCl` [4-O09, 2-chloro-N-(2-cyano-4-nitrophenyl)acetamide], the viability at 48 h, 25 µM is reported as 1.1%.
Work on `CCC(C)c1ccccc1NC(=O)C(C)Cl` (stereo not shown) [4-O10, N-[2-(butan-2-yl)phenyl]-2-chloropropanamide] yielded a viability at 48 h, 25 µM of 85.1%.
In the case of `Cc1nn(Cc2ccccc2)c(C)c1CNC(=O)CCl` [4-O11, N-[(1-benzyl-3,5-dimethyl-1H-pyrazol-4-yl)methyl]-2-chloroacetamide], the viability at 48 h, 25 µM is reported as 1.47%.
Work on `O=C(CCl)NCCc1ccc(Cl)cc1` [4-O12, 2-chloro-N-[2-(4-chlorophenyl)ethyl]acetamide] yielded a viability at 48 h, 25 µM of 7.11%.
Work on `O=C(CCl)Nc1ccccc1Sc1ccc(Cl)cc1` [4-O13, 2-chloro-N-{2-[(4-chlorophenyl)sulfanyl]phenyl}acetamide] yielded a viability at 48 h, 25 µM of 0.318%.
With `CC(C)c1ccc(C(NC(=O)CCl)C(C)C)cc1` (stereo not shown) [4-O14, 2-chloro-N-{2-methyl-1-[4-(propan-2-yl)phenyl]propyl}acetamide] the viability at 48 h, 25 µM was 0.576%.
For `CCOC(=O)c1c(NC(=O)CCl)sc(C)c1C` [4-O15, ethyl 2-(2-chloroacetamido)-4,5-dimethylthiophene-3-carboxylate], the viability at 48 h, 25 µM was 57%.
With `O=C(CCl)Nc1c(Cl)c(Cl)cc(Cl)c1Cl` [4-O16, 2-chloro-N-(2,3,5,6-tetrachlorophenyl)acetamide] the viability at 48 h, 25 µM was 1.16%.
With `COc1ccccc1NC(=O)c1ccc(NC(=O)CCl)cc1` [4-O17, 4-(2-chloroacetamido)-N-(2-methoxyphenyl)benzamide] the viability at 48 h, 25 µM was -0.113%.
`O=C(CCl)N1N=C(c2cccs2)CC1c1cccs1` (stereo not shown) [4-O18, 1-[3,5-bis(thiophen-2-yl)-4,5-dihydro-1H-pyrazol-1-yl]-2-chloroethan-1-one] showed a viability at 48 h, 25 µM of 0.013%.
Work on `O=C(CCl)NCC1(c2ccccc2)CCC1` [4-O19, 2-chloro-N-[(1-phenylcyclobutyl)methyl]acetamide] yielded a viability at 48 h, 25 µM of 0.976%.
Compound `O=C(CCl)N1N=C(c2cccs2)CC1c1ccc(F)cc1` (stereo not shown) [4-O20, 2-chloro-1-[5-(4-fluorophenyl)-3-(thiophen-2-yl)-4,5-dihydro-1H-pyrazol-1-yl]ethan-1-one] has a viability at 48 h, 25 µM of 0.502%.
`Cc1c(C#N)c(NC(=O)CCl)n(Cc2ccc(F)cc2)c1C` [4-O21, 2-chloro-N-{3-cyano-1-[(4-fluorophenyl)methyl]-4,5-dimethyl-1H-pyrrol-2-yl}acetamide] showed a viability at 48 h, 25 µM of 0.102%.
Compound `Cc1ccc(C2=NN(C(=O)CCl)C(c3cccs3)C2)cc1` (stereo not shown) [4-O22, 2-chloro-1-[3-(4-methylphenyl)-5-(thiophen-2-yl)-4,5-dihydro-1H-pyrazol-1-yl]ethan-1-one] has a viability at 48 h, 25 µM of -0.0957%.
Work on `CCc1ccc(NC(=O)CCl)cc1` [4-P03, 2-chloro-N-(4-ethylphenyl)acetamide] yielded a viability at 48 h, 25 µM of 0.338%.
`NC(=O)c1ccc(NC(=O)CCl)cc1` [4-P04, 4-(2-chloroacetamido)benzamide] showed a viability at 48 h, 25 µM of 0.712%.
`CCc1ccccc1NC(=O)CN(C)C(=O)C(C)Cl` (stereo not shown) [4-P05, 2-chloro-N-{[(2-ethylphenyl)carbamoyl]methyl}-N-methylpropanamide] gave a viability at 48 h, 25 µM of 81%.
`O=C(CCl)Nc1ncc(Cc2ccccc2Cl)s1` [4-P07, 2-chloro-N-{5-[(2-chlorophenyl)methyl]-1,3-thiazol-2-yl}acetamide] showed a viability at 48 h, 25 µM of -0.245%.
`O=C(CCl)Nc1cccc(S(=O)(=O)N2CCOCC2)c1` [4-P08, 2-chloro-N-[3-(morpholine-4-sulfonyl)phenyl]acetamide] showed a viability at 48 h, 25 µM of 0.715%.
`CCN(CC)S(=O)(=O)c1cc(NC(=O)C(C)Cl)ccc1C` (stereo not shown) [4-P09, 2-chloro-N-[3-(diethylsulfamoyl)-4-methylphenyl]propanamide] showed a viability at 48 h, 25 µM of 69.6%.
Work on `CCN(C(=O)CCl)c1c(N)n(Cc2ccccc2)c(=O)[nH]c1=O` [4-P10, N-(6-amino-1-benzyl-2,4-dioxo-1,2,3,4-tetrahydropyrimidin-5-yl)-2-chloro-N-ethylacetamide] yielded a viability at 48 h, 25 µM of 65.4%.
Compound `CC(Cl)C(=O)NCc1cccs1` (stereo not shown) [4-P11, 2-chloro-N-[(thiophen-2-yl)methyl]propanamide] has a viability at 48 h, 25 µM of 68.4%.
Compound `NS(=O)(=O)c1ccc(CNC(=O)CCl)cc1` [4-P12, 2-chloro-N-[(4-sulfamoylphenyl)methyl]acetamide] has a viability at 48 h, 25 µM of 0.879%.
Compound `O=C(CCl)NSc1ccc([N+](=O)[O-])cc1` [4-P13, 2-chloro-N-[(4-nitrophenyl)sulfanyl]acetamide] has a viability at 48 h, 25 µM of 3.88%.
Work on `O=C(CCl)Nc1ccc(Cl)c(S(=O)(=O)N2CCCCC2)c1` [4-P14, 2-chloro-N-[4-chloro-3-(piperidine-1-sulfonyl)phenyl]acetamide] yielded a viability at 48 h, 25 µM of -0.167%.
Compound `CCOc1ccc(S(=O)(=O)N2CCN(C(=O)CCl)CC2)cc1` [4-P15, 2-chloro-1-[4-(4-ethoxybenzenesulfonyl)piperazin-1-yl]ethan-1-one] has a viability at 48 h, 25 µM of 0.587%.
`CCN(C(=O)C(C)Cl)c1ccccc1` (stereo not shown) [4-P16, 2-chloro-N-ethyl-N-phenylpropanamide] gave a viability at 48 h, 25 µM of 109%.
Compound `COc1ccc([N+](=O)[O-])cc1NC(=O)CCl` [4-P17, 2-chloro-N-(2-methoxy-5-nitrophenyl)acetamide] has a viability at 48 h, 25 µM of 0.714%.
For `COc1ccc(CN2CCN(C(=O)CCl)CC2)cc1F` [4-P18, 2-chloro-1-{4-[(3-fluoro-4-methoxyphenyl)methyl]piperazin-1-yl}ethan-1-one hydrochloride], the viability at 48 h, 25 µM was 0.482%.
For `O=C(CCl)Nc1cccc(Oc2ccccc2)c1` [4-P19, 2-chloro-N-(3-phenoxyphenyl)acetamide], the viability at 48 h, 25 µM was 0.14%.
`Cn1cc(S(=O)(=O)N2CCOCC2)cc1C(=O)NC(=O)CCl` [4-P20, N-(2-chloroacetyl)-1-methyl-4-(morpholine-4-sulfonyl)-1H-pyrrole-2-carboxamide] gave a viability at 48 h, 25 µM of 106%.
With `CCS(=O)(=O)c1ccc(NC(=O)CCl)c(O)c1` [4-P21, 2-chloro-N-[4-(ethanesulfonyl)-2-hydroxyphenyl]acetamide] the viability at 48 h, 25 µM was 73.2%.
Compound `COc1ccc(C2CCCN2C(=O)CCl)c(OC)c1` (stereo not shown) [4-P22, 2-chloro-1-[2-(2,4-dimethoxyphenyl)pyrrolidin-1-yl]ethan-1-one] has a viability at 48 h, 25 µM of 0.348%.
Work on `COc1cccc(NC(=O)CN(C)C(=O)CCl)c1` [5-A03, 2-chloro-N-{[(3-methoxyphenyl)carbamoyl]methyl}-N-methylacetamide] yielded a viability at 48 h, 25 µM of 0.139%.
With `Cc1nc2n(n1)CCN(C(=O)C(C)Cl)C2` (stereo not shown) [5-A04, 2-chloro-1-{2-methyl-5H,6H,7H,8H-[1,2,4]triazolo[1,5-a]pyrazin-7-yl}propan-1-one] the viability at 48 h, 25 µM was 107%.
In the case of `CCC(C)(C)C1CCc2c(sc(NC(=O)CCl)c2C#N)C1` (stereo not shown) [5-A05, 2-chloro-N-[3-cyano-6-(2-methylbutan-2-yl)-4,5,6,7-tetrahydro-1-benzothiophen-2-yl]acetamide], the viability at 48 h, 25 µM is reported as -0.0335%.
`CN(CCC1CCCCC1)C(=O)CCl` [5-A06, 2-chloro-N-(2-cyclohexylethyl)-N-methylacetamide] showed a viability at 48 h, 25 µM of 0.304%.
In the case of `CC(Cl)C(=O)Nc1cccc(S(=O)(=O)N(C)C)c1` (stereo not shown) [5-A07, 2-chloro-N-[3-(dimethylsulfamoyl)phenyl]propanamide], the viability at 48 h, 25 µM is reported as 55.5%.
For `O=C(CCl)N1CCN(C(=O)CC(F)(F)F)CC1` [5-A08, 1-[4-(2-chloroacetyl)piperazin-1-yl]-3,3,3-trifluoropropan-1-one], the viability at 48 h, 25 µM was 0.522%.
Work on `O=C(CCl)NCC1CC(=O)N(c2ccccc2)C1` (stereo not shown) [5-A09, 2-chloro-N-[(5-oxo-1-phenylpyrrolidin-3-yl)methyl]acetamide] yielded a viability at 48 h, 25 µM of 0.822%.
